Measurements from EP4644396A1 (Visionpharma (Nantong) Co., Ltd, priority 2022, dated 2024).
pIC50: −log10 of the molar value. Where two headings read alike, the source gives them in different places.

Experiments:
human TLR7 = molecular target: T1, human TLR7 (Homo sapiens, UniProt Q9NYK1); test: HEK-Blue hTLR7 SEAP reporter gene inhibition assay; format: cell-based; conditions: read-out: HEK-Blue hTLR7 IC50
T1 sequence (Q9NYK1 27-1049): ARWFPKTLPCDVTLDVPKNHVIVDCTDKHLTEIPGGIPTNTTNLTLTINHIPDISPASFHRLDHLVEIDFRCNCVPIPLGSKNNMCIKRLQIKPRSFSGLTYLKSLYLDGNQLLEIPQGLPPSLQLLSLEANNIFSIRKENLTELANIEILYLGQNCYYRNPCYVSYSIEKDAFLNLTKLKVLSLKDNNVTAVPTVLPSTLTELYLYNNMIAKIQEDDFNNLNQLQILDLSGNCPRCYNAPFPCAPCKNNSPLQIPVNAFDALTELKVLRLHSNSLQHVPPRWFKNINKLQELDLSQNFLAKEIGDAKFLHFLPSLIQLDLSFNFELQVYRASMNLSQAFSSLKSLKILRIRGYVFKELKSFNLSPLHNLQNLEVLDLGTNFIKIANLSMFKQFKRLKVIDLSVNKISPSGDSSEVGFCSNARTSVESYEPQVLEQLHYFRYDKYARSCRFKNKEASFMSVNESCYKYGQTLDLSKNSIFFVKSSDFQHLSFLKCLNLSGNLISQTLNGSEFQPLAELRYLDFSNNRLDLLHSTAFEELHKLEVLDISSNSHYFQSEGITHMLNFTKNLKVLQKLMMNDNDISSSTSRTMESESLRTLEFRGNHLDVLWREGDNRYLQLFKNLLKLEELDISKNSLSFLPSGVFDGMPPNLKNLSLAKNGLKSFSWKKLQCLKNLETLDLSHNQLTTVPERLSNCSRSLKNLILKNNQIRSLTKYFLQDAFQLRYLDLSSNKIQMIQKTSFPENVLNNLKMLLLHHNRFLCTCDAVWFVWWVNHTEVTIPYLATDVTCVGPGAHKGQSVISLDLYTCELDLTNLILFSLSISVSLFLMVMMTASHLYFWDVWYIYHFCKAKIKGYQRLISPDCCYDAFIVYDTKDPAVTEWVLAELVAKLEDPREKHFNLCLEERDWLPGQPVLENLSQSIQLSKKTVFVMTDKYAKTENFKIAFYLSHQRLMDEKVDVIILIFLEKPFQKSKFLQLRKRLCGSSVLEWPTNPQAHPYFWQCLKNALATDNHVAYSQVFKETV
Outline: (§1)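 SEAP read-out by Quanti-Blue after 20 h stimulation gave IC50 values. Stable hTLR7 or hTLR8 HEK-Blue cells were pretreated 15 min with compound at 0.001–36 µM final, then stimulated with 10 µM Gardiquimod (TLR7) or 10 µM TLR8 ligand.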

human TLR8 = molecular target: T2, human TLR8 (Homo sapiens, UniProt Q9NR97); test: HEK-Blue hTLR8 SEAP reporter gene inhibition assay; format: cell-based; conditions: read-out: HEK-Blue hTLR8 IC50
T2 construct: expressed in transfected cells
T2 sequence (Q9NR97 27-1041): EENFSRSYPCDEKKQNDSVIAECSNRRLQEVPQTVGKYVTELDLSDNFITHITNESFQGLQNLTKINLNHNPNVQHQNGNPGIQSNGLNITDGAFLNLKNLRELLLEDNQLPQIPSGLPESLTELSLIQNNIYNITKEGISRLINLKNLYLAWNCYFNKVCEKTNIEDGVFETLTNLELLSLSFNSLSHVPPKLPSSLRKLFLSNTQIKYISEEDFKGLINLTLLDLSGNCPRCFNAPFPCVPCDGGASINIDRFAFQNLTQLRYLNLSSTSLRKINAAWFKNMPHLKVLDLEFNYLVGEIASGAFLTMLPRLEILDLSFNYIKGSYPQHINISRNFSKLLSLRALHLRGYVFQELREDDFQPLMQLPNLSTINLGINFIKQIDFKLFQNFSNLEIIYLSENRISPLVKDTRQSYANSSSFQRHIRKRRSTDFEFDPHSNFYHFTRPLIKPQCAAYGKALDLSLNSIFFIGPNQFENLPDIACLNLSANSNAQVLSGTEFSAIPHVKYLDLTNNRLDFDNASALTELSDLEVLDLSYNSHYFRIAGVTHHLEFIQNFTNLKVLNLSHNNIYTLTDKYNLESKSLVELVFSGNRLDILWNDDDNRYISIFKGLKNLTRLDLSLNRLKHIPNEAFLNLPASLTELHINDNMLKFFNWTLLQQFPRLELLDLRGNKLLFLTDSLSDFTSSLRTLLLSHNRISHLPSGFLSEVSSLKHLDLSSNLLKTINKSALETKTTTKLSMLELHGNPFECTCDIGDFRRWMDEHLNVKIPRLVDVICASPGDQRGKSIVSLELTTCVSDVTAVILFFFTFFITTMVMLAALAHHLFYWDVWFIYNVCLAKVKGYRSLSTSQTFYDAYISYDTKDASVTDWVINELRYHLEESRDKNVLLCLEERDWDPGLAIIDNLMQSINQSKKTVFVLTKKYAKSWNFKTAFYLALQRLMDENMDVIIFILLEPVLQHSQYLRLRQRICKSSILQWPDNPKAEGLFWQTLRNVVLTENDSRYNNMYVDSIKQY
Outline: as §1

[1] = hTLR7 HEK-Blue cells, TLR7 ligand Gardiquimod 10 µM, 20 hours, SEAP by Quanti-blue, class symbols
[2] = hTLR8 HEK-Blue cells, TLR8 ligand 10 µM, 20 hours, SEAP by Quanti-blue, class symbols

| Compound | pIC50 (human TLR7; [1]) | pIC50 (human TLR8; [2]) | pIC50 (human TLR7) | pIC50 (human TLR8) |
| --- | --- | --- | --- | --- |
| 4-((4R,9S)-4,9-dimethyl-8-(2-(4-methylpiperazin-1-yl)-2-oxoethyl)-3,4,7,8,9,10-hexahydropyrido[3',4':3,4]pyrazolo[1,5-a]pyrazin-2(1H)-yl)-3-fluoropyrazolo[1,5-a]pyridine-7-carbonitrile [Example I-128] | > 7.30 | > 7.00 | – | – |
| COC(=O)C1(CN2Cc3nn4c(c3C[C@@H]2C)CN(c2ccc(C#N)n3ncc(F)c23)C[C@H]4C)CC1 [Example I-192, Methyl 1-(((4R,9S)-2-(7-cyano-3-fluoropyrazolo [1,5-a]pyridin-4-yl)-4,9-dimethyl-1,2,3,4,9,10-hexahydropyrido[3',4':3,4]pyrazolo[1,5-a]pyrazin-8(7H)-yl)methyl) cyclopropane-1-carboxylate] | < 7.30 | > 7.00 | – | – |
| CC(C)C1Cc2c(nn3c2CN(c2ccc(C#N)n4ncc(F)c24)C[C@H]3C)CN1 (stereo partly drawn) [Example I-60, 3-Fluoro-4-((4R)-9-isopropyl-4-methyl-3,4,7,8,9,10-hexahydropyrido[3',4':3,4]pyrazolo[1,5-a]pyrazin-2(1H)-yl)pyrazolo[1,5-a]pyridine-7-carbonitrile] | > 7.30 | < 7.00 | – | – |
| C[C@@H]1Cc2c(nn3c2CN(c2ccc(C#N)n4ncc(F)c24)C[C@H]3C)CN1 [Example I-30b] | > 7.30 | > 7.00 | – | – |
| C[C@@H]1CN(c2ccc(C#N)n3ncc(F)c23)Cc2c3c(nn21)CN(Cc1ccn[nH]1)[C@@H](C)C3 [Example I-134, 4-((4R,9S)-8-((1H-pyrazol-5-yl)methyl)-4,9-dimethyl-3,4,7,8,9,10-hexahydropyrido[3',4':3,4]pyrazolo[1,5-a]pyrazin-2(1H)-yl)-3-fluoropyrazolo[1,5-a]pyridine-7-carbonitrile] | – | – | > 7.30 | > 7.00 |
| COCCN1Cc2nn3c(c2C[C@@H]1C)CN(c1ccc(C#N)n2ncc(F)c12)C[C@H]3C [Example I-125, 3-Fluoro-4-((4R,9S)-8-(2-methoxyethyl)-4,9-dimethyl-3,4,7,8,9,10-hexahydropyridine [3 ', 4 ': 3, 4]pyrazole [1,5-a]pyrazine-2(1H)-yl) pyrazole[1,5-a] pyridine-7-caronitrile] | – | – | > 7.30 | > 7.00 |
| C[C@@H]1CN(c2ccc(C#N)n3ncc(F)c23)Cc2c3c(nn21)CN(CC(=O)N1CCCC1)[C@@H](C)C3 [Example I-151, 4-((4R,9S)-4,9-dimethyl-8-(2-oxo-2-(pyrrolidin-1-yl)ethyl)-3,4,7,8,9,10-hexahydropyrido[3',4':3,4]pyrazolo[1,5-a]pyrazin-2(1H)-yl)-3-fluoropyrazolo[1,5-a]pyridine-7-carbonitrile] | > 7.30 | < 7.00 | – | – |
| CC1Cc2c(nn3c2CN(c2ccc(C#N)n4ncc(F)c24)C[C@H]3C)C(C)N1 (single isomer, unassigned) [Example I-59b] | > 7.30 | > 7.00 | – | – |
| C[C@@H]1CN(c2ccc(C#N)n3ncc(F)c23)Cc2c3c(nn21)CN(CC(N)=O)[C@@H](C)C3 [Example I-99, 2-((4R,9S)-2-(7-cyanide-3-fluoropyridox and [1,5-a]pyridox-4-base)-4,9-dimethyl-1,2,3,4,9, 10-hydropyridox [3', 4': 3, 4]pyridoz and [1, 5]pyridoxine-8 (7H)-Base) acetylamine] | > 7.30 | < 7.00 | – | – |
| C[C@@H]1CN(C(=O)CN2Cc3nn4c(c3C[C@@H]2C)CN(c2ccc(C#N)n3ncc(F)c23)C[C@H]4C)C[C@@H](C)N1 [Example I-146, 4-((4R,9S)-8-(2-((3R,5R)-3,5-dimethylpiperazin-1-yl)-2-oxoethyl)-4,9-dimethyl-3,4,7,8,9,10-hexahydropyrido[3',4':3,4]pyrazolo[1,5-a]pyrazin-2(1H)-yl)-3-fluoropyrazolo[1,5-a]pyridine-7-carbonitrile] | > 7.30 | < 7.00 | – | – |
| C[C@@H]1CN(c2ccc(C#N)n3ncc(F)c23)Cc2c3c(nn21)CN(C[C@@](C)(O)CO)[C@@H](C)C3 [Example I-224, 4-((4R,9S)-8-((R)-2,3-dihydroxy-2-methylpropyl)-4,9-dimethyl-3,4,7,8,9,10-hexahydropyrido[3',4':3,4]pyrazolo[1,5-a]pyrazin-2(1H)-yl)-3-fluoropyrazolo[1,5-a]pyridine-7-carbonitrile] | > 7.30 | > 7.00 | – | – |
| C[C@@H]1CN(c2ccc(C#N)n3ncc(F)c23)Cc2c3c(nn21)CN(C[C@@H](O)CO)[C@@H](C)C3 [Example I-158, 4-((4R,9S)-8-((R)-2,3-dihydroxypropyl)-4,9-dimethyl-3,4,7,8,9,10-hexahydropyrido[3',4':3,4]pyrazolo[1,5-a]pyrazin-2(1H)-yl)-3-fluoropyrazolo[1,5-a]pyridine-7-carbonitrile] | > 7.30 | > 7.00 | – | – |
| COC[C@H]1Cc2c(nn3c2CN(c2ccc(C#N)n4ncc(F)c24)C[C@H]3C)CN1 [Example I-82, 3-Fluoro-4-((4R,9R)-9-(methoxymethyl)-4-methyl-3,4,7,8,9,10-hexahydropyrido [3',4':3,4]pyrazolo[1,5-a]pyrazin-2(1H)-yl)pyrazolo[1,5-a]pyridine-7-carbonitrile] | > 7.30 | < 7.00 | – | – |
| COC[C@@H]1Cc2c(nn3c2CN(c2ccc(C#N)n4ncc(F)c24)C[C@H]3C)CN1 [Example I-85, 3-Fluoro-4-((4R,9S)-9-(methoxymethyl)-4-methyl-3,4,7,8,9,10-hexahydropyrido [3',4':3,4]pyrazolo[1,5-a]pyrazin-2(1H)-yl)pyrazolo[1,5-a]pyridine-7-carbonitrile] | < 7.30 | > 7.00 | – | – |
| C[C@H]1CN(c2ccc(C#N)n3ncc(F)c23)Cc2c3c(nn21)CNCC3 [Example I-76, (S)-3-Fluoro-4-(4-methyl-3,4,7,8,9,10-hexahydropyrido[3',4':3,4]pyrazolo[1,5-a]pyrazin-2(1H)-yl)pyrazolo[1,5-a]pyridine-7-carbonitrile] | < 7.30 | < 7.00 | – | – |
| 3-Fluoro-4-((4R,9S)-8-(2-((R)-3-fluoropyrrolidin-1-yl)-2-oxoethyl)-4,9-dimethyl-3,4,7,8,9,10-hexahydropyrido[3',4':3,4]pyrazolo[1,5-a]pyrazin-2(1H)-yl)pyrazolo[1,5-a]pyridine-7-carbonitrile [Example I-149] | > 7.30 | < 7.00 | – | – |
| C[C@@H]1CN(c2ccc(C#N)n3ncc(F)c23)Cc2c3c(nn21)CN(CC(C)(C)C(N)=O)[C@@H](C)C3 [Example I-198, 3-((4R,9S)-2-(7-cyano-3-fluoropyrazolo[1,5-a]pyridin-4-yl)-4,9-dimethyl-1,2,3,4,9,10-hexahydropyrido[3',4':3,4]pyrazolo[1,5-a]pyrazin-8(7H)-yl)-2,2-dimethyl propanamide] | < 7.30 | < 7.00 | – | – |
